Test results from PubChem BioAssay AID248 (DTP/NCI, 2004).
Several values for one entry are separate records, joined by “and”; a condition that tells them apart may be missing. Equal entries are not always repeated. Toxic doses and inconclusive results are not listed. No stated cut-off is given here; in the data, active means T/C of 150% or more; inactive means T/C below 125%.

Tested on: L1210 leukemia ip in BDF1 mice, survival T/C
Assay: NCI In Vivo Anticancer Drug Screen. Data for tumor model L1210 Leukemia (intraperitoneal) in B6D2F1 (BDF1) mice
Details: endpoint: mean survival time, higher = longer survival
Outline: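 Tumor cells were implanted, animals were treated, and survival was followed. The result divides the treated measurement by the vehicle-control measurement.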

[1] = dose: 100.0 mg/kg/injection, schedule: Q01DX009 (ip), vehicle: saline with Tween-80
[2] = dose: 50.0 mg/kg/injection, schedule: Q01DX009 (ip), vehicle: Klucel (hydroxypropylcellulose) (HPC)
[3] = dose: 100.0 mg/kg/injection, schedule: Q01DX009 (ip), vehicle: Klucel (hydroxypropylcellulose) (HPC)
[4] = dose: 200.0 mg/kg/injection, schedule: Q01DX009 (ip), vehicle: Klucel (hydroxypropylcellulose) (HPC)
[5] = dose: 100.0 mg/kg/injection, schedule: Q04DX002 (ip), vehicle: saline with Tween-80
[6] = dose: 200.0 mg/kg/injection, schedule: Q04DX002 (ip), vehicle: saline with Tween-80
[7] = dose: 400.0 mg/kg/injection, schedule: Q04DX002 (ip), vehicle: saline with Tween-80
[8] = dose: 100.0 mg/kg/injection, schedule: Q04DX002 (ip), vehicle: Klucel (hydroxypropylcellulose) (HPC)
[9] = dose: 200.0 mg/kg/injection, schedule: Q04DX002 (ip), vehicle: Klucel (hydroxypropylcellulose) (HPC)
[10] = dose: 100.0 mg/kg/injection, schedule: Q04DX003 (ip), vehicle: Klucel (hydroxypropylcellulose) (HPC)
[11] = dose: 200.0 mg/kg/injection, schedule: Q04DX003 (ip), vehicle: Klucel (hydroxypropylcellulose) (HPC)
[12] = dose: 400.0 mg/kg/injection, schedule: Q04DX003 (ip), vehicle: Klucel (hydroxypropylcellulose) (HPC)
[13] = dose: 50.0 mg/kg/injection, schedule: Q01DX001 (ip), vehicle: saline
[14] = dose: 100.0 mg/kg/injection, schedule: Q01DX001 (ip), vehicle: saline
[15] = dose: 200.0 mg/kg/injection, schedule: Q01DX001 (ip), vehicle: saline
[16] = dose: 400.0 mg/kg/injection, schedule: Q01DX001 (ip), vehicle: saline
[17] = dose: 400.0 mg/kg/injection, schedule: Q04DX002 (ip), vehicle: Klucel (hydroxypropylcellulose) (HPC)
[18] = dose: 200.0 mg/kg/injection, schedule: Q01DX009 (ip), vehicle: saline with Tween-80
[19] = dose: 100.0 mg/kg/injection, schedule: Q01DX009 (ip), vehicle: saline

Measured: T/C

COc1ccc(OC)c(NC(=O)NNC(=O)CNC(=O)Nc2cccc(C)n2)c1
inactive: dose: 25.0 mg/kg/injection, schedule: Q01DX009 (ip), vehicle: saline with Tween-80 94 % of control | dose: 50.0 mg/kg/injection, schedule: Q01DX009 (ip), vehicle: saline with Tween-80 94 % of control | [1] 90 % of control

CC(=O)OC1CCC2(C)C(CCC3C4CC=C(C(C)=O)C4(C)OC(=O)CC32)C1 (configuration not stated)
inactive: dose: 12.5 mg/kg/injection, schedule: Q01DX009 (ip), vehicle: Klucel (hydroxypropylcellulose) (HPC) 98 % of control | dose: 25.0 mg/kg/injection, schedule: Q01DX009 (ip), vehicle: Klucel (hydroxypropylcellulose) (HPC) 96 % of control | [2] 98 % of control

CCNC(=O)Nc1cccc(NC(=O)C(=O)O)c1 (tested in a mixture with another compound)
inactive: dose: 100.0 mg/kg/injection, schedule: Q01DX001 (ip), vehicle: gum acacia 87 % of control | dose: 200.0 mg/kg/injection, schedule: Q01DX001 (ip), vehicle: gum acacia 97 % of control | dose: 400.0 mg/kg/injection, schedule: Q01DX001 (ip), vehicle: gum acacia 96 % of control

CS/C(N)=N\[N+](=O)[O-]
inactive: [2] 89 % of control | [3] 110 % of control | [4] 114 % of control

C[C@H]1[C@H](O)[C@H]2[C@@H](CCC3=CC(=O)CC[C@@]32C)[C@@H]2CC[C@H](O)[C@@]12C
inactive: dose: 50.0 mg/kg/injection, schedule: Q01DX001 (sc), vehicle: steriod suspending solution 102 % of control | dose: 100.0 mg/kg/injection, schedule: Q01DX001 (sc), vehicle: steriod suspending solution 102 % of control | dose: 200.0 mg/kg/injection, schedule: Q01DX001 (sc), vehicle: steriod suspending solution 102 % of control | dose: 400.0 mg/kg/injection, schedule: Q01DX001 (sc), vehicle: steriod suspending solution 96 % of control

NOC(=O)c1cccc(Cl)c1
inactive: [5] 94 % of control | [6] 105 % of control | [7] 96 % of control

C=C(Br)CNC(=O)Nc1ccccn1
inactive: [3] 93 % of control | [4] 96 % of control

OC1CCN(C2(c3ccccc3)CCCCC2)CC1
inactive: [8] 104 % of control | [9] 86 % of control

CCCCCc1cc2c3c(c(=O)oc2cc1O)CCCCC3
inactive: dose: 100.0 mg/kg/injection, schedule: Q04DX003 (ip), vehicle: gum acacia 90 % of control | dose: 200.0 mg/kg/injection, schedule: Q04DX003 (ip), vehicle: gum acacia 88 % of control | dose: 400.0 mg/kg/injection, schedule: Q04DX003 (ip), vehicle: gum acacia 96 % of control

O=C(Nc1ccccc1)OCCc1ccc([N+](=O)[O-])cc1
inactive: [10] 100 % of control | [11] 98 % of control | [12] 102 % of control

O=C1Nc2ccccc2C2Cc3c([nH]c4ccccc34)CC12 (configuration not stated)
inactive: [13] 115 % of control | [14] 104 % of control | [15] 104 % of control | [16] 89 % of control

COc1ccccc1OCC(=O)N1CCCC1
inactive: [8] 98 % of control | [9] 98 % of control | [17] 117 % of control

CCCC(O)CC(C)O (configuration not stated)
inactive: [14] 97 % of control | [15] 100 % of control | [16] 95 % of control

C[N+](C)(C)CCOc1ccc([N+](=O)[O-])cc1
inactive: [13] 95 % of control | [14] 104 % of control | [15] 92 % of control

O=C(Nc1ccc([N+](=O)[O-])cc1Cl)OCCCl
inactive: dose: 100.0 mg/kg/injection, schedule: Q01DX001 (ip), vehicle: saline with Tween-80 94 % of control | [1] 98 % of control | [5] 97 % of control | dose: 100.0 mg/kg/injection, schedule: Q04DX003 (ip), vehicle: saline with Tween-80 96 % of control | dose: 200.0 mg/kg/injection, schedule: Q01DX001 (ip), vehicle: saline with Tween-80 98 % of control | [18] 87 % of control and 89 % of control | [6] 97 % of control | dose: 200.0 mg/kg/injection, schedule: Q04DX003 (ip), vehicle: saline with Tween-80 86 % of control | dose: 400.0 mg/kg/injection, schedule: Q01DX001 (ip), vehicle: saline with Tween-80 87 % of control | dose: 400.0 mg/kg/injection, schedule: Q01DX009 (ip), vehicle: saline with Tween-80 91 % of control | [7] 94 % of control

C[S+](C)C12CC3CC(CC(C3)C1)C2
inactive: dose: 25.0 mg/kg/injection, schedule: Q01DX009 (ip), vehicle: saline 108 % of control | dose: 25.0 mg/kg/injection, schedule: Q04DX002 (ip), vehicle: saline 102 % of control | dose: 50.0 mg/kg/injection, schedule: Q01DX009 (ip), vehicle: saline 94 % of control | dose: 50.0 mg/kg/injection, schedule: Q04DX002 (ip), vehicle: saline 102 % of control | [19] 86 % of control | dose: 100.0 mg/kg/injection, schedule: Q04DX002 (ip), vehicle: saline 94 % of control and 96 % of control

O=c1cc([N+](=O)[O-])n(O)cc1[N+](=O)[O-]
inactive: [14] 102 % of control | [15] 108 % of control | [16] 102 % of control

Cc1c2oc3c(C)ccc(C(=O)NCCC(C)C)c3nc-2c(C(=O)NCCC(C)C)c(N)c1=O
inactive: dose: 10.0 mg/kg/injection, schedule: Q01DX001 (ip), vehicle: carboxymethylcellulose (CMC) 93 % of control

CC12CCC(C/C1=C\C#N)C(C)(C)O2 (configuration not stated)
inactive: [10] 98 % of control | [11] 98 % of control | [12] 101 % of control

CC1=NN(c2ccccc2)C(=O)C1N=Nc1ccc(S(=O)(=O)Nc2nnc(C)s2)cc1 (configuration not stated)
inactive: dose: 100.0 mg/kg/injection, schedule: Q01DX001 (ip), vehicle: carboxymethylcellulose (CMC) 98 % of control | dose: 200.0 mg/kg/injection, schedule: Q01DX001 (ip), vehicle: carboxymethylcellulose (CMC) 106 % of control | dose: 400.0 mg/kg/injection, schedule: Q01DX001 (ip), vehicle: carboxymethylcellulose (CMC) 93 % of control

CCOCc1nc(N)nc(N)c1-c1cccc(Cl)c1
inactive: [1] 104 % of control | [18] 117 % of control

Clc1ccc(CSC2=NCCN2)cc1
inactive: dose: 12.5 mg/kg/injection, schedule: Q04DX003 (ip), vehicle: saline 94 % of control | dose: 25.0 mg/kg/injection, schedule: Q04DX003 (ip), vehicle: saline 93 % of control | dose: 50.0 mg/kg/injection, schedule: Q04DX003 (ip), vehicle: saline 98 % of control

CC(=O)Nc1nnc(/C=C/c2ccc([N+](=O)[O-])o2)s1
inactive: [10] 87 % of control | [11] 89 % of control | [12] 100 % of control

CC(=O)Nc1cccc([As](=O)(c2cccc(NC(C)=O)c2)c2cccc(NC(C)=O)c2)c1
inactive: dose: 55.0 mg/kg/injection, schedule: Q01DX Z (ip), vehicle: methylcellulose (MC) 98 % of control | dose: 125.0 mg/kg/injection, schedule: Q01DX Z (ip), vehicle: methylcellulose (MC) 98 % of control

Cc1nnc(NN)nc1C
inactive: dose: 6.25 mg/kg/injection, schedule: Q01DX009 (ip), vehicle: saline with Tween-80 101 % of control | dose: 6.25 mg/kg/injection, schedule: Q04DX003 (ip), vehicle: saline with Tween-80 100 % of control | dose: 12.5 mg/kg/injection, schedule: Q01DX001 (ip), vehicle: saline with Tween-80 112 % of control | dose: 12.5 mg/kg/injection, schedule: Q01DX009 (ip), vehicle: saline with Tween-80 103 % of control | dose: 12.5 mg/kg/injection, schedule: Q04DX003 (ip), vehicle: saline with Tween-80 103 % of control | dose: 25.0 mg/kg/injection, schedule: Q01DX001 (ip), vehicle: saline with Tween-80 100 % of control | dose: 25.0 mg/kg/injection, schedule: Q04DX003 (ip), vehicle: saline with Tween-80 95 % of control

Cc1ccc(C(C)O)cc1 (configuration not stated)
inactive: [8] 98 % of control | [9] 98 % of control | [17] 98 % of control

CC(=O)CC(O)(C(F)(F)F)C(F)(F)F
inactive: [19] 105 % of control | dose: 200.0 mg/kg/injection, schedule: Q01DX009 (ip), vehicle: saline 101 % of control | dose: 400.0 mg/kg/injection, schedule: Q01DX009 (ip), vehicle: saline 93 % of control
